From US20240373849A1, “INSECT NEUROPEPTIDE ANALOGUES” (THE UNIVERSITY COURT OF THE UNIVERSITY OF GLASGOW, priority 2020, published 2024)
Values joined by “and” are separate entries in the source; they are usually repeats but may differ in a detail not shown here. Identical values can stand only once. Square brackets hold non-standard residues; d marks the D form. * marks the point of attachment. Guanidyl = -C(=N+Me2)NMe2 on the N-terminal amine (tetramethylguanidyl cap), CN(C)C(=[N+](C)C)*; Benzoyl(4-benzoyl) = O=C(c1ccccc1)c1ccc(C(=O)*)cc1; Palmitoyl = CCCCCCCCCCCCCCCC(=O)*; NMeV = CN[C@H](C(=O)O)C(C)C; NMeA = CN[C@@H](C)C(=O)O

Columns and labels:
[1] = tested on: Drosophila suzukii larvae; assay: Drosophila suzukii larval feeding (Example 8; peptide screening); type: in vivo; set-up: key to D. suzukii (Sig Diff Grp): A indicates a significant difference in survival compared with control (blank).; B indicates a significant difference in survival compared with scrambled capa1.; C indicates a significant difference in survival compared with scrambled capa2; conditions: for D. suzukii (Mean% Lethality ± SD) / D. suzukii (Sig Diff Grp): Peptide screening, Table 5; for D. suzukii (Mean% Lethality ± SD): blank control 20.33; for D. suzukii (Sig Diff Grp): difference in survival; for Feeding D. suzukii, % lethality in population after adjustment for baseline: 10^−5 M, 48 hr exposure
Procedure: (§1) First to Fourth generations of peptides were produced with varying structures and tested for CAPA receptor agonist activity, and screened for lethality in vivo against D. suzukii and M. persicae as per methods in example 2 and example 8. The top performing peptides were selected and gave rise to the list of CAPA1 and CAPA2 peptides provided above in Table 1 which were then further tested in the following applied examples.
Peptides were tested at concentrations ranging from [10^−4 M] to [10^−7 M] in a final volume of 200 μl of 0.8% agarose containing 0.09% m-Cresol purple pH marker dye (Sigma) and 5% sucrose (Sigma).
Agarose was melted in dH2O, before addition of sucrose and dye. The agarose/dye solution was then allowed to cool to 60° C. 96 well plates (flat-bottomed 3596 TC-plates; Corning) containing 20 μl volumes of neuropeptide per well were prepared, and 180 μl agarose/dye solution dispensed into each well via a Distriman repetitive micro-pipettor (Gilson). Controls contained 20 μl dH2O as a ‘sham’ treatment with 180 μl of the 0.8% agarose/dye solution. Plates were agitated at 800 rpm, to ensure mixing, at 60° C. (Eppendorf Thermomixer C). Plates were then allowed to cool, and agarose/dye solution solidify, prior to use.
Each peptide was assayed with a minimum of 7 to maximum 9 late L2/early L3 Spotted wing Drosophila, Drosophila suzukii, (feeding) larvae per well, minimum n=8 wells per peptide concentration and a minimum n=12 control wells per plate. The selected larvae were first washed 2× in ice cold Drosophila Schneider's liquid medium (ThermoFisher) before insertion into wells to remove extraneous food. After complete insertion of all larvae the plates were covered with breathable sealing membrane for multi-well plates (Sigma).
Larvae were assayed for lethality after 48 hr exposure at 21° C. and findings recorded. During examination the assay plate was kept on ice, to reduce larval locomotor activity (wandering), and larvae in each well were examined using a binocular stereomicroscope (Zeiss).
The water control group was used to determine baseline lethality. Results for neuropeptide analogues were calculated as % lethality in the remaining population after adjustment for the baseline. Results are shown in Tables 7 and 8 below, and in FIG. 1.

[2] = tested on: bumblebees (Bombus terrestris); assay: Bumblebee acute oral toxicity test; type: in vivo
Procedure: Oral toxicity against bumblebees (Bombus terrestris) was determined as previously described:
OECD (2017), Test No. 247: Bumblebee, Acute Oral Toxicity Test, OECD Guidelines for the Testing of Chemicals, Section 2, OECD Publishing, Paris, https://doi.org/10.1787/9789264284128-en.
Example data are provided for peptides, AH56, AH257, AH259 in Tables 4, 5 below. […]
Data were acquired for: feeding behaviour—weight of liquid consumed pre- and post-treatment; lethality (days).
There was no negative impact on feeding behaviour from capa peptides. Acute bumblebee toxicity was also assessed for other peptide candidates including: AH270, PEG270. Overall, capa peptides are bee safe.

[3] = tested on: M. persicae; assay: Feeding of aphids with peptides in artificial diet (Example 2; peptide screening, honeydew); type: in vivo, Myzus persicae; conditions: Peptide screening, Table 5
From the text: as §1
The aphid feeding protocol was devised according to Sadeghi et al (2009) as explained in example 1. Feeding discs were designed and manufactured as above. A standard sucrose-based artificial diet for M. persicae (30 aphids per chamber, 3 chambers per experiment unless otherwise stated) was produced as described in example 1 (Sadeghi et al, J. Insect Science, 2009) and provided the basal diet to which peptides were added for screening purposes. Peptides were diluted individually in the artificial diet to 10^−5 M. Lethality was scored after up to 120 hours (IRAC guidelines for aphid testing).
Membrane discs were also included to collect ‘honeydew’ secreted by feeding aphids and stained with ninhydrin to observe feeding patterns.
Comparison of purple stain in controls to treated aphids, show there is very little colour on many membranes where peptides were added.
Capa peptides cause mortality in M. persicae via feeding: At 120 hours, AH383 and AH387 peptides induce ˜60% mean (and median) lethality. Although mean lethality is lower with AH270/PEGAH270 (40%), 100% lethality is observed in one sample of 30 insects (AH270); and 90% in at least one sample of each of AH383, AH387 and PEGAH270 (FIG. 3). Note that PEGAH270 is a pegylated form of peptide AH270.

[4] = tested on: Myzus persicae aphids; assay: Topical application by spraying, Potter Spray Tower (Example 3); type: in vivo; conditions: 48 hours post spray
Procedure: Aphids were exposed to test peptides in the absence of additional external stress conditions.
Brassica rapa (Chinese cabbage; Wong Bok) were infested with 30 adult Myzus persicae aphids per plant. Aphids were left at least 2 hours to settle and begin feeding from the host plant.
Potter Spray Tower (Burkard Manufacturing) was ‘primed’ by spraying 1000 μl of liquid coating the inside of the tower. Vehicle spray only (Croda ATPlus UEP 100 LQ-(CQ) 0.1% v/v) was used as a control.
Spray volumes for all solutions were 3000 μl. […] After spraying was completed the plant was allowed to rest on the spray platform for 30 seconds to allow settling of the sprayed chemical.
Post peptide application, each condition was placed into its own individual Bugdorm (Watkins and Doncaster, 44545), to prevent repulsed or displaced aphids moving from one condition to another. Numbers of alive and dead aphids on the plant were counted 48 hours post spray, and the presence of any fresh nymphs noted. Plants were watered prior to spraying but not afterwards to eliminate the possibility of drowning any aphids present or washing off the sprayed liquid.
The vehicle control group was used to determine baseline lethality. Results for neuropeptide analogues were calculated as % lethality in the remaining population after adjustment for the baseline.

[5] = tested on: M. persicae; assay: Feeding of aphids with peptides in artificial diet (Example 1); type: in vivo, Myzus persicae
Procedure: A standard artificial diet for M. persicae was produced as described in Van Emden (2009) and provided the basal diet to which peptides were added for screening purposes. Peptides were diluted individually in the artificial diet to a pre-determined concentration.
Feeding apparatus were constructed using a set-up developed by Sadeghi et al (2009). For this, a piece of Parafilm was stretched over a Plexiglas ring (h=4 cm, Ø=3 cm) and 100 μl of the artificial diet containing the desired neuropeptide analogue was pipette onto the Parafilm membrane. A second piece of Parafilm, stretched to 4 times the original thickness, was stretched over the original layer, sandwiching the artificial diet between two layers of Parafilm. A strip of Parafilm was wrapped around the circumference of the Plexiglas ring, sealing in the diet. A plastic ring (h=1.2 cm, Ø=3.4 cm) was subsequently placed over the Parafilm layer, creating a walled chamber in which to house test aphids in contact with the Parafilm layer containing the artificial diet. Finally, a small Petri dish (h=1 cm, Ø=3.6 cm), modified for ventilation with net cloth, was placed on top of each feeding apparatus to prevent aphid escape.
To obtain aphids for use in experiments, reproducing anholocyclic adults were placed on individual excised leaves of Chinese cabbage at densities of 5 adults per leaf and allowed to reproduce for 24 h. The stem of each excised leaf was held within a 0.5 mL Eppendorf tube containing water via a punctured hole in the Eppendorf lid, and placed individually within a microcage (L=4 cm, Ø=9.5 cm). Following 24h, adults were removed and resultant first instar nymphs (<1 day old and synchronised in age to within 24h) retained. Nymphs were allowed to develop on the Chinese cabbage for 5 days. On day 5, (3rd instar) nymphs were transferred onto the artificial diet containing a neuropeptide analogue at densities of 1 per feeding chamber and monitored daily until death. Aphids were transferred to fresh artificial diet (containing neuropeptide analogue or water control) every 5 days.
The water control group was used to determine baseline lethality. Results for neuropeptide analogues were calculated as % lethality in the remaining population after adjustment for the baseline.

[6] = Table 11, individual bees, peptide 1 × 10 − 5M or Spirotetramat 25 uM

4-Benzoyl benzoic-LVAFPRV-NH2 ({Benzoyl(4-benzoyl)}-LVAFPRV-NH2; SMILES CC(C)C[C@H](NC(=O)c1ccc(C(=O)c2ccccc2)cc1)C(=O)N[C@H](C(=O)N[C@@H](C)C(=O)N[C@@H](Cc1ccccc1)C(=O)N1CCC[C@H]1C(=O)N[C@@H](CCCNC(=N)N)C(=O)N[C@H](C(N)=O)C(C)C)C(C)C) [AH55]
D. suzukii (Mean% Lethality ± SD) [1]: 54.50%

4-Benzoyl benzoic-LYAFPRV-NH2 ({Benzoyl(4-benzoyl)}-LYAFPRV-NH2; SMILES CC(C)C[C@H](NC(=O)c1ccc(C(=O)c2ccccc2)cc1)C(=O)N[C@@H](Cc1ccc(O)cc1)C(=O)N[C@@H](C)C(=O)N[C@@H](Cc1ccccc1)C(=O)N1CCC[C@H]1C(=O)N[C@@H](CCCNC(=N)N)C(=O)N[C@H](C(N)=O)C(C)C) [AH49]
D. suzukii (Mean% Lethality ± SD) [1]: 41.13%
D. suzukii (Sig Diff Grp) [1]: A

CCOC(=O)OC1=C(c2cc(C)ccc2C)C(=O)N[C@]12CC[C@@H](OC)CC2 [Spirotetramat, reference compound]
Liquid post exposure (weight), Mean ([2]; Table 11, group mean, n=10): 1.109 g
liquid consumed per day post exposure, Mean ([2]; Table 11, group mean, n=10): 0.2773 g
Liquid post exposure (weight) [2, 6]: 0.7878 g and 1.2332 g and 0.2963 g and 1.7853 g and 1.2062 g and 2.1130 g and 0.6196 g and 0.7732 g and 1.3842 g and 0.8924 g
days alive [2, 6]: 4 days
liquid consumed per day post exposure [2, 6]: 0.1970 g and 0.3083 g and 0.0741 g and 0.4463 g and 0.3016 g and 0.5283 g and 0.1549 g and 0.1933 g and 0.3461 g and 0.2231 g

O=[N+]([O-])NC1=NCCN1Cc1ccc(Cl)nc1 [imidacloprid, Imidacloprid, reference compound]
lethality of bumblebees ([2]; 28.3 uM, on day 1): 100%
dead? ([2]; Table 10, individual bees, peptide ×10−5M or imidacloprid 28.3 uM in 50% sucrose, 0.1% ATPlus): 1
Est weight sucrose consumed post testing/day ([2]; individual bees, peptide ×10−5M or imidacloprid 28.3 uM in 50% sucrose, 0.1% ATPlus): 0.0822 grams/day and 0.0000 grams/day and 0.0495 grams/day and 0.0562 grams/day and 0.2205 grams/day and 0.4394 grams/day
Feeding impacted? (+ve feeding increased post pep, −ve feeding decreased post pep) ([2]; individual bees, post minus pre testing sucrose consumption): −0.1179 grams/day and −0.1209 grams/day and −0.1306 grams/day and −0.3025 grams/day and −0.1495 grams/day and −0.1412 grams/day and 0.0704 grams/day and −0.3396 grams/day and 0.1955 grams/day and −0.2914 grams/day and −0.3507 grams/day
T-test outcome, sucrose consumed Pre vs Post ([2]; per treatment group): Feeding sig reduced

Ac-LVAFPRV-NH2 [AH33]
D. suzukii (Mean% Lethality ± SD) [1]: 43.50%
D. suzukii (Sig Diff Grp) [1]: A

Ac-LYAFPRV-NH2 [AH32]
D. suzukii (Mean% Lethality ± SD) [1]: 41.50%
D. suzukii (Sig Diff Grp) [1]: A

Guanidyl-LV-(Me)A-FPRV-NH2 (Guanidyl-LV[NMeA]FPRV-NH2; SMILES CC(C)C[C@H](NC(N(C)C)=[N+](C)C)C(=O)N[C@H](C(=O)N(C)[C@@H](C)C(=O)N[C@@H](Cc1ccccc1)C(=O)N1CCC[C@H]1C(=O)N[C@@H](CCCNC(=N)N)C(=O)N[C@H](C(N)=O)C(C)C)C(C)C) [AH258]
D. suzukii (Mean% Lethality ± SD) [1]: 47.75%
D. suzukii (Sig Diff Grp) [1]: A

H-Ahx-L-(Me)V-AFPRV-NH2 [AH283]
M. persicae (% Lethality) [3]: 40%
Spray Aphid, % lethality in population after adjustment for baseline ([4]; 10^−4 M): 30%
Spray Aphid, % lethality in population after adjustment for baseline ([4]; 10^−5 M): 20%
Feeding D. suzukii, % lethality in population after adjustment for baseline [1]: 43%
D. suzukii (Mean% Lethality ± SD) [1]: 42.63%
D. suzukii (Sig Diff Grp) [1]: A
Feeding Aphid, % lethality in population after adjustment for baseline ([5]; 10^−4 M): 34%
Feeding Aphid, % lethality in population after adjustment for baseline ([5]; 10^−5 M): 26%
Feeding Aphid, % lethality in population after adjustment for baseline ([5]; 10^−5 M, @72 h): 12 (51%
Feeding Aphid, % lethality in population after adjustment for baseline ([5]; 10^−6 M): 27%
Feeding Aphid, % lethality in population after adjustment for baseline ([5]; 10^−7 M): 20%

H-LYAFAR-(Me)V-NH2 (H-LYAFAR[NMeV]-NH2; SMILES CC(C)C[C@H](N)C(=O)N[C@@H](Cc1ccc(O)cc1)C(=O)N[C@@H](C)C(=O)N[C@@H](Cc1ccccc1)C(=O)N[C@@H](C)C(=O)N[C@@H](CCCNC(=N)N)C(=O)N(C)[C@H](C(N)=O)C(C)C) [AH380]
Spray Aphid, % lethality in population after adjustment for baseline ([4]; 10^−5 M): 33%
Feeding D. suzukii, % lethality in population after adjustment for baseline [1]: 45%
Feeding Aphid, % lethality in population after adjustment for baseline ([5]; 10^−5 M): 12%

H-Nle-LYAFPRV-NH2 [AH51]
D. suzukii (Mean% Lethality ± SD) [1]: 38.63%
D. suzukii (Sig Diff Grp) [1]: A

Palmitoyl-LVAFPRV-NH2 (SMILES CCCCCCCCCCCCCCCC(=O)N[C@@H](CC(C)C)C(=O)N[C@H](C(=O)N[C@@H](C)C(=O)N[C@@H](Cc1ccccc1)C(=O)N1CCC[C@H]1C(=O)N[C@@H](CCCNC(=N)N)C(=O)N[C@H](C(N)=O)C(C)C)C(C)C) [AH59]
D. suzukii (Mean% Lethality ± SD) [1]: 44.13%
D. suzukii (Sig Diff Grp) [1]: A

Palmitoyl-LYAFPRV-NH2 (SMILES CCCCCCCCCCCCCCCC(=O)N[C@@H](CC(C)C)C(=O)N[C@@H](Cc1ccc(O)cc1)C(=O)N[C@@H](C)C(=O)N[C@@H](Cc1ccccc1)C(=O)N1CCC[C@H]1C(=O)N[C@@H](CCCNC(=N)N)C(=O)N[C@H](C(N)=O)C(C)C) [AH62]
M. persicae (% Lethality) [3]: 29%
